Source: US9498477B2, “Compositions and uses thereof to ameliorate pain” (Purdue Research Foundation, priority 2011, dated 2016)

Key:
[1] = tested on: Sprague Dawley rats models of spinal contusion injury; details: chronic SCI (5 months), single intraperitoneal dose 5 mg/kg body weight
Text: (§1) Spinal contusion injury. Sprague Dawley rats are subjected to a spinal contusion injury according to the procedure described by Basso et al., Graded histological and locomotor outcomes after spinal cord contusion using the NYU weight-drop device versus transaction, Exp Neurol. […] After 20 weeks, the animals are divided into untreated injury and treated injury groups, each of which is compared to an uninjured control.
Test compound treatment. […] The solution is sterilized through a filter and stored at 4° C. […] Untreated animals are administered saline vehicle intraperitoneally. Blood pressures are monitored using a CODA 2 system (Kent Scientific Corp.).
Mechanical allodynia evaluation. Sprague Dawley rats models of spinal contusion injury are divided into untreated injury and treated injury groups. The untreated injury groups are injected daily with vehicle as described herein. The treated injury groups are injected daily with test compound as described herein. Uninjured controls, untreated injury groups, and treated injury groups are evaluated for pain according to the procedure described by Choi et al., Behavioral signs of ongoing pain and cold allodynia in a rat model of neuropathic pain, Pain 59:369-376 (1994).

[2] = tested on: Sprague Dawley rats models of spinal contusion injury; details: chronic SCI (5 months), single intraperitoneal dose 5 mg/kg body weight; remark: listed apart in the source
Text: as §1
Test compound treatment. A solution of test compound, such as hydralazine hydrochloride (Sigma), is prepared with phosphate buffered saline. The solution is sterilized through a filter and stored at 4° C. […] Untreated animals are administered saline vehicle intraperitoneally. Blood pressures are monitored using a CODA 2 system (Kent Scientific Corp.).
Cold allodynia evaluation. Sprague Dawley rats models of spinal contusion injury are divided into untreated injury and treated injury groups. The untreated injury groups are injected daily with vehicle as described herein. The treated injury groups are injected daily with test compound as described herein. Uninjured controls, untreated injury groups, and treated injury groups are evaluated for pain according to the procedure described by Choi et al., Behavioral signs of ongoing pain and cold allodynia in a rat model of neuropathic pain, Pain 59:369-376 (1994).

NNc1nncc2ccccc12 [hydralazine]
time to improvement of mechanical allodynia after the injection [1]: ≤ 2 days
duration of efficacy of the treatment, mechanical allodynia ([1]; FIG. 2 panel A): at least 10 days
time to improvement of cold-induced pain after the injection [2]: ≤ 2 h
duration of efficacy of the treatment, cold allodynia ([2]; FIG. 2 panel B): at least 10 days
